From patent publication US20100120762A1, “Triazine derivatives as inhibitors of phosphodiesterases” (WYETH, priority 2008, published 2010) come the findings set out here.

In experiment [1] the target is T1, PDE2A (NM002599) (Homo sapiens, UniProt O00408).
T1 construct: made in house; host or cells: baculovirus / SF21 insect cells
As to the kind of experiment: Inhibition of recombinant PDE2A (expressed in baculovirus/SF21-cells). The class given is biochemical. To be noted: recombinant PDE2A, 0.5 μM [3H]-cAMP, 1000 nM cGMP, 37° C., 30 minutes, SPA; read-out: PDE2A IC50. Here is the method: PDE2A (NM002599) was cloned and the gene was inserted in the baculovirus and the enzyme-protein expressed in SF21-cells. The enzyme was isolated from these cells by harvesting the cells by an centrifugation at 200 g to collect the cells. The cells were resuspended in 50 mM Tris-HCl/5 mM MgCl2 buffer (pH=7.4) (Sigma, Deisenhofen, Germany; Merck, Darmstadt, Germany) and lysed by a sonication of the cells (three times for 15 seconds, Labsonic U, Fa. Braun, Degersheim, Switzerland, level “high”). The membrane fraction of PDE2A was obtained by a centrifugation at 48 000 g for 1 h, resuspended in buffer and stored at −70° C.
PDE2A activity was determined in a one step procedure in microtiterplates. The reaction mixture of 100 μl contained 50 mM Tris-HCl/5 mM MgCl2 buffer (pH=7.4) (Sigma, Deisenhofen, Germany; Merck, Darmstadt, Germany), 0.5 μM [3H]-cAMP (Amersham, Buckinghamshire, UK), 1000 nM cGMP and the enzyme. Non-specific enzyme activity was tested in the absence of cGMP. The reaction was initiated by addition of the substrate solution and was carried out at 37° C. for 30 minutes. Enzymatic activity then was stopped by addition of 25 μl SPA-beads (Amersham-Pharmacia). One hour later the mixture was measured in a liquid scintillation counter for microtiterplates (Microbeta Trilux). For pipetting of the incubation mixture the robot Biomek (Fa. Beckman) was routinely used.
The optimal amount of enzyme in the assay has been determined and optimised for each enzyme preparation separately before using the enzyme in compound testing. For determination of IC50 values the Hill-plot, 2-parameter-model, was used.

In experiment [2] the target is T2, PDE10A1 (AB 020593) (Homo sapiens, UniProt Q9Y233).
T2 construct: made in house; host or cells: baculovirus / SF21 insect cells (gene synthesized by Entelechon GmbH)
As to the kind of experiment: Inhibition of recombinant PDE10A (baculovirus/SF21 system). The conditions noted are these: recombinant cytosolic PDE10A, 0.1 μM [3H]-cAMP, 37° C., 30 minutes, SPA; read-out: PDE10A IC50. The class given is biochemical. Here is the method: The DNA of PDE10A1 (AB 020593, 2340 bp) was synthesized and cloned into the vector pCR4.TOPO (Entelechon GmbH, Regensburg, Germany). The gene was than inserted into a baculovirus vector, ligated with the baculovirus DNA. The enzyme-protein was expressed in SF21-cells. The enzyme was isolated from these cells by harvesting the cells by an centrifugation at 500 g to collect the cells.
The cells were resuspended in 50 mM Tris-HCl/1 mM EDTA/250 mM Sucrose buffer, pH=7.4 (Sigma, Deisenhofen, Germany; Merck, Darmstadt, Germany) and lysed by sonification of the cells (three times for 15 seconds, Labsonic U, Fa. Braun, Degersheim, Switzerland, level “high”). The cytosolic PDE10A was obtained by a centrifugation at 48,000 g for 1 h in the supernatant and stored at −70° C.
PDE activity was determined in a one step procedure in microtiter plates. The reaction mixture of 100 μl contained 50 mM Tris-HCl/5 mM MgCl2 buffer (pH=7.4, Sigma, Deisenhofen, Germany; Merck, Darmstadt, Germany) 0.1 μM [3H]-cAMP (Amersham, Buckinghamshire, UK) and the enzyme. Non-specific enzyme activity was determined without the enzyme. The reaction was initiated by addition of the substrate solution and was carried out at 37° C. for 30 minutes. Enzymatic activity then was stopped by addition of 25 μl Ysi-SPA-beads (Amersham-Pharmacia). One h later the mixture was measured in a liquid scintillation counter for microtiter plates (Microbeta Trilux). The Biomek 2000 (Beckman) was used routinely for pipetting of the incubation mixture. The optimal amount of enzyme in the assay has been determined and optimized for each enzyme preparation separately before using the enzyme in compound testing. For determination of IC50 values the Hill-plot, 2-parameter-model, was used.

T2 sequence (Q9Y233 other isoform, or with tags, fused parts or gaps): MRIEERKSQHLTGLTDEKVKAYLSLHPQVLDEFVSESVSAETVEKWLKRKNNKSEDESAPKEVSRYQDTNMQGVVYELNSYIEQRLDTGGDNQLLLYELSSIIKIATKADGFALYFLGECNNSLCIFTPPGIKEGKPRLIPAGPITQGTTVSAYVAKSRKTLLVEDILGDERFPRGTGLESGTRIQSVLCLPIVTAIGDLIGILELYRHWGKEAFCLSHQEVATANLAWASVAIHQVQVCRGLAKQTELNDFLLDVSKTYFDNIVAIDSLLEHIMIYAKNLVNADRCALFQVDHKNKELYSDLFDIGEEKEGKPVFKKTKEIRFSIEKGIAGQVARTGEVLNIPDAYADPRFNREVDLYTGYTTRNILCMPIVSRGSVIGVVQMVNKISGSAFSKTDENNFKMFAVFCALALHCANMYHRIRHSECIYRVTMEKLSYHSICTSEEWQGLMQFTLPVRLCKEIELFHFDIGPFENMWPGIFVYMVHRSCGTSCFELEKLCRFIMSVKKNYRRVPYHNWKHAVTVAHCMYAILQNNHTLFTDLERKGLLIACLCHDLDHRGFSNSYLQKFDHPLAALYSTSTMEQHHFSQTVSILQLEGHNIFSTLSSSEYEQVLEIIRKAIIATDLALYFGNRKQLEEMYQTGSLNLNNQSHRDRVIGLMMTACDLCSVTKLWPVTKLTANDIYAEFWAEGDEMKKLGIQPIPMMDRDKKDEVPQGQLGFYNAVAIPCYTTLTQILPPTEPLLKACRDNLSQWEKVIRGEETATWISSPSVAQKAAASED
T1 sequence (O00408 whole entry): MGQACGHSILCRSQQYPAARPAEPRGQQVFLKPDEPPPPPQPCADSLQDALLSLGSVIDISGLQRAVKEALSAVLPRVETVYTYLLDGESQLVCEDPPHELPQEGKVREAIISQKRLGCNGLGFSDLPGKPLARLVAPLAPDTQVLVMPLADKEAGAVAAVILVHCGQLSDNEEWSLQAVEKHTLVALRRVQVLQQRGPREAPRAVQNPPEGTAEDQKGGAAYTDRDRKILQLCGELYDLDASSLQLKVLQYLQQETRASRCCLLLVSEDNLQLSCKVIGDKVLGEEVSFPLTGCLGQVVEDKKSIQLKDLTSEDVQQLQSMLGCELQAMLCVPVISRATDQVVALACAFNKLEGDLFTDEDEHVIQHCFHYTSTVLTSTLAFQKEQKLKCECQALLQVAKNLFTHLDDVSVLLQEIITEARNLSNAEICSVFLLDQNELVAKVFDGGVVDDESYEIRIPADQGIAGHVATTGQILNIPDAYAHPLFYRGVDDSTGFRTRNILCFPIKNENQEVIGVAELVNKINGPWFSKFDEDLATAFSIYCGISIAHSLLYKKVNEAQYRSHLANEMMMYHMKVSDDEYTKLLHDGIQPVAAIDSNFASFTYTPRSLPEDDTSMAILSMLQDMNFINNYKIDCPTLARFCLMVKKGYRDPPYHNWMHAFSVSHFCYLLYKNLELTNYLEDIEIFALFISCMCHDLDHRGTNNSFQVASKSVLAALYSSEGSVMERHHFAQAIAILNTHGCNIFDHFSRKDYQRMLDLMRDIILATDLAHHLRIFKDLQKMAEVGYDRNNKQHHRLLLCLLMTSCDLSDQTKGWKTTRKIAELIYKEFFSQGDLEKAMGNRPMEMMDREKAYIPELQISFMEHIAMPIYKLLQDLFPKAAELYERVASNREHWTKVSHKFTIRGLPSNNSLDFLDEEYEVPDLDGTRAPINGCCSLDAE

As a reminder, the IC50 is the concentration at which inhibition is half-maximal. On to `COc1ccc2nnc3c(C)nc(-c4ccncc4)n3c2n1` [Example 44, 2-methoxy-7-methyl-9-pyridin-4-ylimidazo[5,1-c]pyrido[2,3-e][1,2,4]triazine], for which the IC50 in experiment [1] worked out at 477 nM; in experiment [2], 348 nM.

Consider `COc1ccc2nnc3c(C)nc(-c4ccc(F)c(Cl)c4)n3c2n1` [Example 96, 9-(3-chloro-4-fluorophenyl)-2-methoxy-7-methylimidazo[5,1-c]pyrido[2,3-e][1,2,4]triazine], for which the IC50 was 73.7 nM in experiment [1] and 216 nM in experiment [2].

As to `COc1ccc2nnc3c(C)nc(-c4cc(F)ccc4Cl)n3c2n1` [Example 62, 9-(2-chloro-5-fluorophenyl)-2-methoxy-7-methylimidazo[5,1-c]pyrido[2,3-e][1,2,4]triazine], the IC50 was found to be 5.32 nM in experiment [1] and 21.2 nM in experiment [2].

For `COc1ccc2nnc3c(C)nc(-c4cscc4C)n3c2n1` [Example 77, 2-methoxy-7-methyl-9-(4-methylthiophen-3-yl)imidazo[5,1-c]pyrido[2,3-e][1,2,4]triazine], the IC50 in experiment [1] was 51.2 nM; in experiment [2], 43.6 nM.

“1-(2-Ethoxy-5-methyl-phenyl)-8-methoxy-3-methyl-imidazo[5,1-c]pyrido[2,3-e][1,2,4]triazine [Example 104]”: the IC50 worked out at 162 nM in experiment [1] and 871 nM in experiment [2].

For `COc1ccc2nnc3c(C)nc(-c4cc(C(F)(F)F)ccc4Cl)n3c2n1` [Example 72, 9-(2-chloro-5-(trifluoromethyl)phenyl)-2-methoxy-7-methylimidazo[5,1-c]pyrido[2,3-e][1,2,4]triazine], the values for the IC50 in experiment [1] and in experiment [2] were 24.9 nM and 282 nM, respectively.

Regarding `COc1ccc2nnc3c(C)nc(-c4cccc(OC)c4OC)n3c2n1` [Example 37, 9-(2,3-dimethoxyphenyl)-2-methoxy-7-methylimidazo[5,1-c]pyrido[2,3-e][1,2,4]triazine], the IC50 in experiment [1] was 274 nM; in experiment [2] it was 146 nM.

For the compound `COc1ccc2nnc3c(C)nc(-c4ccccc4C(N)=O)n3c2n1` [Example 103, 2-(2-methoxy-7-methylimidazo[5,1-c]pyrido[2,3-e][1,2,4]triazin-9-yl)benzamide], the IC50 in experiment [1] was 806 nM; in experiment [2], 1410 nM.

`COc1ccc2nnc3c(C)nc(-c4ccc(F)nc4C)n3c2n1` [Example 66, 9-(6-fluoro-2-methylpyridin-3-yl)-2-methoxy-7-methylimidazo[5,1-c]pyrido[2,3-e][1,2,4]triazine]: the IC50 came out at 49 nM in experiment [1] and 225 nM in experiment [2].

As to `COc1ccc2nnc3c(C)nc(-c4cncc(C)c4)n3c2n1` [Example 33, 2-methoxy-7-methyl-9-(5-methylpyridin-3-yl)imidazo[5,1-c]pyrido[2,3-e][1,2,4]triazine], the IC50 in experiment [1] was determined as 14.4 nM; in experiment [2], 51.5 nM.

For the compound `COc1ccc2nnc3c(C)nc(-c4ccc5nccn5c4)n3c2n1` [Example 48, 9-imidazo[1,2-a]pyridin-6-yl-2-methoxy-7-methylimidazo[5,1-c]pyrido[2,3-e][1,2,4]triazine], the figures for the IC50 in experiment [1] and in experiment [2] were 550 nM and 260 nM, respectively.

As for “8-Methoxy-3-methyl-1-(2-methyl-2H-pyrazol-3-yl)-imidazo[5,1-c]pyrido[2,3-e][1,2,4]triazine [Example 108]”, the IC50 in experiment [1] turned out to be 286 nM; in experiment [2] it was 773 nM.

For `COc1ccc(-c2nc(C)c3nnc4ccc(OC)nc4n23)c(Cl)c1` [Example 89, 9-(2-chloro-4-methoxyphenyl)-2-methoxy-7-methylimidazo[5,1-c]pyrido[2,3-e][1,2,4]triazine], the IC50 turned out to be 52.6 nM in experiment [1] and 62.8 nM in experiment [2].

As for `Cc1nc(-c2cc(Cl)ccc2Cl)n2c1nnc1ccc(N3CCCC3)nc12` [Example 120, 1-(2,5-Dichloro-phenyl)-3-methyl-8-pyrrolidin-1-yl-imidazo[5,1-c]pyrido[2,3-e][1,2,4]triazine], the IC50 stood at 3.24 nM in experiment [1] and 48 nM in experiment [2].

For the compound `COc1ccc2nnc3c(C)nc(-c4cc(C)ccc4Cl)n3c2n1` [Example 71, 9-(2-chloro-5-methylphenyl)-2-methoxy-7-methylimidazo[5,1-c]pyrido[2,3-e][1,2,4]triazine], the IC50 is 4.37 nM in experiment [1] and 37.9 nM in experiment [2].

For the compound `COc1ccc2nnc3c(C)nc(-c4cc(Cl)cc(Cl)c4)n3c2n1` [Example 97, 9-(3,5-dichlorophenyl)-2-methoxy-7-methylimidazo[5,1-c]pyrido[2,3-e][1,2,4]triazine], the IC50 turned out to be 460 nM in experiment [1] and 329 nM in experiment [2].

In the case of `COc1ccc2nnc3c(C)nc(-c4cncnc4)n3c2n1` [Example 80, 2-methoxy-7-methyl-9-pyrimidin-5-ylimidazo[5,1-c]pyrido[2,3-e][1,2,4]triazine], the IC50 in experiment [1] is 4070 nM; in experiment [2] it was 5950 nM.

In the case of `COc1ccc(F)c(-c2nc(C)c3nnc4ccc(OC)nc4n23)c1` [Example 19, 9-(2-fluoro-5-methoxyphenyl)-2-methoxy-7-methylimidazo[5,1-c]pyrido[2,3-e][1,2,4]triazine], the figures for the IC50 in experiment [1] and in experiment [2] were 2.99 nM and 9.83 nM, respectively.

In the case of `CCc1ccccc1-c1nc(C)c2nnc3ccc(OC)nc3n12` [Example 35, 9-(2-ethylphenyl)-2-methoxy-7-methylimidazo[5,1-c]pyrido[2,3-e][1,2,4]triazine], the figures for the IC50 in experiment [1] and in experiment [2] were 41.6 nM and 59.4 nM, respectively.

On to “1-(2-Chloro-pyridin-4-yl)-8-methoxy-3-methyl-imidazo[5,1-c]pyrido[2,3-e][1,2,4]triazine [Example 109]”, for which the figures for the IC50 in experiment [1] and in experiment [2] were 698 nM and 215 nM, respectively.

Turning to “9-[2-fluoro-5-(1-methylethoxy)phenyl]-2-methoxy-7-methylimidazo[5,1-c]pyrido[2,3-e][1,2,4]triazine [Example 20]”, the values for the IC50 in experiment [1] and in experiment [2] were 102 nM and 2430 nM, respectively.

`COc1ccc2nnc3c(C)nc(-c4ccnc(C)c4)n3c2n1` [Example 34, 2-methoxy-7-methyl-9-(2-methylpyridin-4-yl)imidazo[5,1-c]pyrido[2,3-e][1,2,4]triazine]: the IC50 was found to be 421 nM in experiment [1] and 270 nM in experiment [2].

For `COc1ccc2nnc3c(C)nc(-c4cc(C#N)ccc4Cl)n3c2n1` [Example 87, 4-chloro-3-(2-methoxy-7-methylimidazo[5,1-c]pyrido[2,3-e][1,2,4]triazin-9-yl)benzonitrile], the IC50 was 29.8 nM in experiment [1] and 420 nM in experiment [2].

Consider `COc1ccc2nnc3c(C)nc(-c4cccc(OC(C)C)c4)n3c2n1` [Example 27, 2-methoxy-7-methyl-9-[3-(1-methylethoxy)phenyl]imidazo[5,1-c]pyrido[2,3-e][1,2,4]triazine], for which the IC50 in experiment [1] is 818 nM; in experiment [2], 1780 nM.

Turning to `CCOc1cccc(-c2nc(C)c3nnc4ccc(OC)nc4n23)c1` [Example 36, 9-(3-ethoxyphenyl)-2-methoxy-7-methylimidazo[5,1-c]pyrido[2,3-e][1,2,4]triazine], the IC50 in experiment [1] is 148 nM; in experiment [2], 303 nM.

For `COc1ccc2nnc3c(C)nc(-c4ccc(Cl)cc4Cl)n3c2n1` [Example 88, 9-(2,4-dichlorophenyl)-2-methoxy-7-methylimidazo[5,1-c]pyrido[2,3-e][1,2,4]triazine], the IC50 in experiment [1] came out at 15.1 nM; in experiment [2], 15 nM.
